Results taken from ChEMBL document CHEMBL5214981, “Thionated aminofluorophthalimides reduce classical markers of cellular inflammation in LPS-challenged RAW 264.7 cells” (Bioorg Med Chem Lett, 2022).

Key:
[1] = tested on: RAW264.7; test: Antiinflammatory activity in LPS-activated mouse RAW264.7 cells assessed as inhibition of TNF-alpha production at 10 uM measured at 24 to 48 hrs after LPS stimulation by ELISA analysis relative to control; type: functional; design: scale not given: the % may be the effect or the level left; settings: time 24-48 hrs
[2] = tested on: RAW264.7; test: Cytotoxicity against LPS-activated mouse RAW264.7 cells assessed as reduction in cell viability at 10 uM measured at 24 to 48 hrs by MTS assay relative to control; type: toxicity, cell-based; settings: raw264.7, 10 µM, time 24-48 hrs
[3] = tested on: RAW264.7; test: Antiinflammatory activity in LPS-activated mouse RAW264.7 cells assessed as inhibition of nitrite production at 10 uM measured at 24 to 48 hrs after LPS stimulation by ELISA analysis relative to control; type: functional; design: scale not given: the % may be the effect or the level left; settings: time 24-48 hrs
[4] = Metabolic stability in human liver microsomes assessed as compound remaining at 10 uM using pH 7.4 phosphate buffer incubated for 30 mins in the presence of NADPH regenerating system by LC/MS analysis (reference value: 100%); type: ADME, Microsome; settings: read-out: Stability
[5] = Metabolic stability in human liver microsomes assessed as compound remaining at 10 uM using pH 7.4 phosphate buffer incubated for 60 mins in the presence of NADPH regenerating system by LC/MS analysis (reference value: 100%); type: ADME, Microsome; settings: read-out: Stability
[6] = Metabolic stability in human liver microsomes assessed as compound remaining at 10 uM using pH 7.4 phosphate buffer incubated for 30 mins in the absence of NADPH regenerating system by LC/MS analysis (reference value: 100%); type: ADME, Microsome; settings: read-out: Stability
[7] = Metabolic stability in human liver microsomes assessed as compound remaining at 10 uM using pH 7.4 phosphate buffer incubated for 60 mins in the absence of NADPH regenerating system by LC/MS analysis (reference value: 100%); type: ADME, Microsome; settings: read-out: Stability

| Structure (SMILES) | Activity [1] | Activity [2] | Activity [3] | remaining at 0.5 h, 10 µM [4] | remaining at 1 h, 10 µM [5] | remaining at 0.5 h, 10 µM [6] | remaining at 1 h, 10 µM [7] |
| --- | --- | --- | --- | --- | --- | --- | --- |
| CC(C)Nc1ccc(F)c2c1C(=O)N(C1CCC(=S)NC1=O)C2=O (centres undefined) | 94.4% | 112.3% | 74.8% | – | – | – | – |
| Nc1c(F)ccc2c1C(=O)N(C1CCC(=O)NC1=O)C2=O (centres undefined) | 93% | 90% | 100% | – | – | – | – |
| CC(C)Nc1ccc(F)c2c1C(=O)N(C1CCC(=O)NC1=O)C2=O (centres undefined) | 87.1% | 99.9% | 110.1% | – | – | – | – |
| Nc1ccc(F)c2c1C(=O)N(C1CCC(=O)NC1=O)C2=O (centres undefined) | 98% | 100.9% | 86% | – | – | – | – |
| Nc1cccc2c1C(=O)N(C1CCC(=O)NC1=O)C2=O (centres undefined) [POMALIDOMIDE] | 95% | 95% | 91% | – | – | – | – |
| Nc1cccc2c1C(=S)N(C1CCC(=S)NC1=O)C2=O (centres undefined) | 113% | 92% | 43% | 68% | 48% | 71% | 53% |
| CC(C)Nc1ccc(F)c2c1C(=S)N(C1CCC(=S)NC1=O)C2=O (centres undefined) | 74.7% | 74.1% | 32.3% | – | – | – | – |
| Nc1c(F)ccc2c1C(=S)N(C1CCC(=S)NC1=O)C2=O (centres undefined) | 114% | 92% | 40% | – | – | – | – |
| O=C1NC(=S)CCC1N1C(=O)c2c(F)ccc([N+](=O)[O-])c2C1=O (centres undefined) | 51.3% | 44.9% | 4.7% | – | – | – | – |
| O=C1CCC(N2C(=O)c3c(F)ccc([N+](=O)[O-])c3C2=O)C(=O)N1 (centres undefined) | 86% | 104.9% | 56.8% | – | – | – | – |
| Nc1ccc(F)c2c1C(=O)N(C1CCC(=S)NC1=O)C2=O (centres undefined) | 107% | 112.4% | 59% | – | – | – | – |
| Nc1ccc(F)c2c1C(=S)N(C1CCC(=S)NC1=O)C2=O (centres undefined) | 104.1% | 95% | 22% | 64% | 41% | 71% | 46% |
